Reference: patent publication US5916873A, “Teicoplanin derivatives” (Eli Lilly and Company, priority 1998, dated 1999)
In brackets after ≈: the same amount, converted by molar mass.

Key:
[1] = system: vancomycin-sensitive enterococci; assay: mean geometric MIC, vancomycin-sensitive enterococci, broth micro-dilution; type: cell-based, Enterococcus faecium and Enterococcus faecalis; details: Table 3, representative vancomycin-sensitive enterococci
Procedure: (§1) The antibacterial efficacy of the present teicoplanin derivatives is illustrated by the following tables. The minimal inhibitory concentrations (MICs) were determined using a standard broth micro-dilution assay.

[2] = system: vancomycin-resistant enterococci; assay: mean geometric MIC, vancomycin-resistant enterococci, broth micro-dilution; type: cell-based, Enterococcus faecium and Enterococcus faecalis; details: Table 3, representative vancomycin-resistant enterococci
Procedure: as §1

S. h. 105 = assay: standard broth micro-dilution MIC; type: cell-based; details: Table 2B; strain 105
Procedure: as §1

E. f. 180 = assay: standard broth micro-dilution MIC; type: cell-based; details: Table 2B; strain 180
Procedure: as §1

EC14 = assay: standard broth micro-dilution MIC; type: cell-based; details: Table 2C; strain EC14
Procedure: as §1

E. f. 2041 = assay: standard broth micro-dilution MIC; type: cell-based; details: Table 2B; strain 2041
Procedure: as §1

S. aureus X778 = assay: standard broth micro-dilution MIC; type: cell-based; details: Table 2A; strain X778
Procedure: as §1

S. aureus 447 = assay: standard broth micro-dilution MIC; type: cell-based; details: Table 2A; strain 447
Procedure: as §1

S. aureus X400 = assay: standard broth micro-dilution MIC; type: cell-based; details: Table 2A; strain X400
Procedure: as §1

St. pyro C203 = assay: standard broth micro-dilution MIC; type: cell-based; details: Table 2C; strain C203
Procedure: as §1

St. pneumo P1 = assay: standard broth micro-dilution MIC; type: cell-based; details: Table 2C; strain P1
Procedure: as §1

S. aureus 489 = assay: standard broth micro-dilution MIC; type: cell-based; details: Table 2A; strain 489
Procedure: as §1

S. aureus 491 = assay: standard broth micro-dilution MIC; type: cell-based; details: Table 2A; strain 491
Procedure: as §1

S. epi 270 = assay: standard broth micro-dilution MIC; type: cell-based; details: Table 2B; strain 270
Procedure: as §1

S. aureus 446 = assay: standard broth micro-dilution MIC; type: cell-based; details: Table 2A; strain 446
Procedure: as §1

S. h. 415 = assay: standard broth micro-dilution MIC; type: cell-based; details: Table 2B; strain 415
Procedure: as §1

E. f. 180-1 = assay: standard broth micro-dilution MIC; type: cell-based; details: Table 2B; strain 180-1
Procedure: as §1

S. aureus S13E = assay: standard broth micro-dilution MIC; type: cell-based; details: Table 2A; strain S13E
Procedure: as §1

E. gall. 245 = assay: standard broth micro-dilution MIC; type: cell-based; details: Table 2C; strain 245
Procedure: as §1

E. f. 276 = assay: standard broth micro-dilution MIC; type: cell-based; details: Table 2C; strain 276
Procedure: as §1

M. cat M12 = assay: standard broth micro-dilution MIC; type: cell-based; details: Table 2C; strain M12
Procedure: as §1

S. aureus SA1199 = assay: standard broth micro-dilution MIC; type: cell-based; details: Table 2A; strain SA1199
Procedure: as §1

S. aureus SA1199R = assay: standard broth micro-dilution MIC; type: cell-based; details: Table 2B; strain SA1199R
Procedure: as §1

S. aureus SA1199B = assay: standard broth micro-dilution MIC; type: cell-based; details: Table 2B; strain SA1199B
Procedure: as §1

Compound	Sens. MIC [1] [µg/mL]	Resist. MIC [2] [µg/mL]	MIC S. h. 105 (S. h. 105) [µg/mL]	MIC E. f. 180 (E. f. 180) [µg/mL]	MIC EC14 (EC14) [µg/mL]	MIC E. f. 2041 (E. f. 2041)	MIC S. aureus X778 (S. aureus X778) [µg/mL]	MIC S. aureus 447 (S. aureus 447) [µg/mL]	MIC S. aureus X400 (S. aureus X400) [µg/mL]	MIC St. pyro C203 (St. pyro C203)	MIC St. pneumo P1 (St. pneumo P1)	MIC S. aureus 489 (S. aureus 489) [µg/mL]	MIC S. aureus 491 (S. aureus 491) [µg/mL]	MIC S. epi 270 (S. epi 270) [µg/mL]	MIC S. aureus 446 (S. aureus 446) [µg/mL]	MIC S. h. 415 (S. h. 415) [µg/mL]	MIC E. f. 180-1 (E. f. 180-1)	MIC S. aureus S13E (S. aureus S13E) [µg/mL]	other results
CC(=O)NC1C(OC2c3ccc(c(Cl)c3)Oc3cc4cc(c3OC3OC(CO)C(O)C(O)C3NCc3ccc(-c5ccccc5)cc3)Oc3ccc(cc3Cl)CC3NC(=O)C(N)c5ccc(O)c(c5)Oc5cc(O)cc(c5)C(NC3=O)C(=O)NC4C(=O)NC3C(=O)NC2C(=O)NC(C(=O)O)c2cc(O)cc(OC4OC(CO)C(O)C(O)C4O)c2-c2cc3ccc2O)OC(CO)C(O)C1O (stereo not shown) [Example 3, Deacyl Teicoplanin, N^Glu-(4-phenylbenzyl) Derivative]	4.6	> 64																	
CC(=O)NC1C(OC2c3ccc(c(Cl)c3)Oc3cc4cc(c3OC3OC(CO)C(O)C(O)C3NCc3ccc(C=Cc5ccccc5)cc3)Oc3ccc(cc3Cl)CC3NC(=O)C(N)c5ccc(O)c(c5)Oc5cc(O)cc(c5)C(NC3=O)C(=O)NC4C(=O)NC3C(=O)NC2C(=O)NC(C(=O)O)c2cc(O)cc(OC4OC(CO)C(O)C(O)C4O)c2-c2cc3ccc2O)OC(CO)C(O)C1O (stereo not shown) [Example 7]	0.76	19.03	0.25 (≈ 0.13 µM)	64 (≈ 33.4 µM)	> 128	0.25 µg/mL (≈ 0.13 µM)	2 (≈ 1.04 µM)	2 (≈ 1.04 µM)	0.5 (≈ 0.261 µM)	0.25 µg/mL (≈ 0.13 µM)	≤ .06 µg/mL	0.25 (≈ 0.13 µM)	1 (≈ 0.521 µM)	2 (≈ 1.04 µM)	2 (≈ 1.04 µM)	32 (≈ 16.7 µM)	1 µg/mL (≈ 0.521 µM)	0.5 (≈ 0.261 µM)	
CC(=O)NC1C(OC2c3ccc(c(Cl)c3)Oc3cc4cc(c3OC3OC(CO)C(O)C(O)C3NCc3ccc(C=Cc5ccccc5)cc3)Oc3ccc(cc3Cl)CC3NC(=O)C(NCc5ccc(C=Cc6ccccc6)cc5)c5ccc(O)c(c5)Oc5cc(O)cc(c5)C(NC3=O)C(=O)NC4C(=O)NC3C(=O)NC2C(=O)NC(C(=O)O)c2cc(O)cc(OC4OC(CO)C(O)C(O)C4O)c2-c2cc3ccc2O)OC(CO)C(O)C1O (stereo not shown) [Example 8]	0.22	0.59	> 64	0.25 (≈ 0.118 µM)	> 64	0.125 µg/mL (≈ 0.0592 µM)	2 (≈ 0.948 µM)	1 (≈ 0.474 µM)	1 (≈ 0.474 µM)	0.125 µg/mL (≈ 0.0592 µM)	0.25 µg/mL (≈ 0.118 µM)	0.25 (≈ 0.118 µM)	1 (≈ 0.474 µM)	1 (≈ 0.474 µM)	1 (≈ 0.474 µM)	> 64	0.125 µg/mL (≈ 0.0592 µM)	2 (≈ 0.948 µM)	MIC E. gall. 245 (E. gall. 245): 0.25 µg/mL (≈ 0.118 µM); MIC E. f. 276 (E. f. 276): 0.5 µg/mL (≈ 0.237 µM); MIC M. cat M12 (M. cat M12): 0.25 µg/mL (≈ 0.118 µM); MIC S. aureus SA1199 (S. aureus SA1199): 4 µg/mL (≈ 1.9 µM); MIC S. aureus SA1199R (S. aureus SA1199R): 0.125 µg/mL (≈ 0.0592 µM); MIC S. aureus SA1199B (S. aureus SA1199B): 2 µg/mL (≈ 0.948 µM)
CC(=O)NC1C(OC2c3ccc(c(Cl)c3)Oc3cc4cc(c3OC3OC(CO)C(O)C(O)C3NCc3ccc(Oc5ccccc5)cc3)Oc3ccc(cc3Cl)CC3NC(=O)C(NCc5ccc(Oc6ccccc6)cc5)c5ccc(O)c(c5)Oc5cc(O)cc(c5)C(NC3=O)C(=O)NC4C(=O)NC3C(=O)NC2C(=O)NC(C(=O)O)c2cc(O)cc(OC4OC(CO)C(O)C(O)C4O)c2-c2cc3ccc2O)OC(CO)C(O)C1O (stereo not shown) [Example 10]	0.19	1.7	> 64	0.25 (≈ 0.12 µM)	> 64	≤ .06 µg/mL	0.5 (≈ 0.239 µM)	1 (≈ 0.478 µM)	0.25 (≈ 0.12 µM)	≤ .06 µg/mL	0.125 µg/mL (≈ 0.0598 µM)	0.5 (≈ 0.239 µM)	1 (≈ 0.478 µM)	0.5 (≈ 0.239 µM)	0.25 (≈ 0.12 µM)	8 (≈ 3.83 µM)	≤ .06 µg/mL	2 (≈ 0.957 µM)	MIC E. gall. 245 (E. gall. 245): 0.25 µg/mL (≈ 0.12 µM); MIC E. f. 276 (E. f. 276): 0.5 µg/mL (≈ 0.239 µM); MIC M. cat M12 (M. cat M12): ≤ .06 µg/mL; MIC S. aureus SA1199 (S. aureus SA1199): 2 µg/mL (≈ 0.957 µM); MIC S. aureus SA1199R (S. aureus SA1199R): ≤ .06 µg/mL; MIC S. aureus SA1199B (S. aureus SA1199B): 0.5 µg/mL (≈ 0.239 µM)
CC(=O)NC1C(OC2c3ccc(c(Cl)c3)Oc3cc4cc(c3OC3OC(CO)C(O)C(O)C3NCc3ccc(OC(F)(F)F)cc3)Oc3ccc(cc3Cl)CC3NC(=O)C(NCc5ccc(OC(F)(F)F)cc5)c5ccc(O)c(c5)Oc5cc(O)cc(c5)C(NC3=O)C(=O)NC4C(=O)NC3C(=O)NC2C(=O)NC(C(=O)O)c2cc(O)cc(OC4OC(CO)C(O)C(O)C4O)c2-c2cc3ccc2O)OC(CO)C(O)C1O (stereo not shown) [Example 13]	0.25	45	32 (≈ 15.4 µM)	4 (≈ 1.93 µM)	> 128		1 (≈ 0.482 µM)	1 (≈ 0.482 µM)	0.5 (≈ 0.241 µM)	≤ .06 µg/mL	0.05 µg/mL (≈ 0.0241 µM)	0.5 (≈ 0.241 µM)	0.5 (≈ 0.241 µM)	0.5 (≈ 0.241 µM)	1 (≈ 0.482 µM)	8 (≈ 3.86 µM)		1 (≈ 0.482 µM)	
CC(=O)NC1C(OC2c3ccc(c(Cl)c3)Oc3cc4cc(c3OC3OC(CO)C(O)C(O)C3NCc3ccc(OC(F)(F)F)cc3)Oc3ccc(cc3Cl)CC3NC(=O)C(N)c5ccc(O)c(c5)Oc5cc(O)cc(c5)C(NC3=O)C(=O)NC4C(=O)NC3C(=O)NC2C(=O)NC(C(=O)O)c2cc(O)cc(OC4OC(CO)C(O)C(O)C4O)c2-c2cc3ccc2O)OC(CO)C(O)C1O (stereo not shown) [Example 14]	5.28	> 32	1 (≈ 0.526 µM)	> 128	> 128	8 µg/mL (≈ 4.21 µM)	4 (≈ 2.11 µM)	8 (≈ 4.21 µM)	2 (≈ 1.05 µM)	1 µg/mL (≈ 0.526 µM)	1 µg/mL (≈ 0.526 µM)	2 (≈ 1.05 µM)	2 (≈ 1.05 µM)	2 (≈ 1.05 µM)	4 (≈ 2.11 µM)	> 128	8 µg/mL (≈ 4.21 µM)	2 (≈ 1.05 µM)	
Deacyl Teicoplanin, Bis(10-undecen-1-yl) Derivative [Example 4]	1.5	1.2	16	8	> 128		4	8	2	0.5 µg/mL	1 µg/mL	2	4	2	4	16		2	
